# Target: WRN [UniPro: Q14191 (WRN_HUMAN), N500-C946] (Homo sapiens (Human), UniProt Q14191)
# Experiment: WRN unwinding assay (FORKF DNA, fluorescence)
# Assay type: biochemical
# Settings: Table 14
# Protocol: WRN unwinding assay was initiated to evaluate potential inhibitory effect of compounds for WEN helicase activity. WRN [UniPro: Q14191 (WRN_HUMAN), N500-C946] was expressed and purified in insect system and stored at −80° C. in aliquots. […] Compounds dissolved in DMSO (Sigma, D8418) were plated into a 96-well intermediate plate (BioFil, VWP-032-096) for 3-fold serial titration for 10 points using DMSO, and well-to-well transfer the titrated compounds into another 96-well intermediate plate including assay buffer in advance. Shake the 96-well intermediate plate at 600 rpm for 10 min. to fully mix. Specifically, a 3× working mixture of WRN was diluted to a concentration of 60 nM in assay buffer. […] After centrifuging at 1000 rpm and shaking at 500 rpm, the assay plate was pre-incubated for 30 min. Then, […] 3×FORKF DNA and ATP working mixture was dispensed into assay plate. Plate was sealed, centrifuged and incubated for an additional 40 min. at 25° C. […] Each concentration of compound was tested in duplicates in the assay plate. Average fluorescence signal of high control (Wells with 1% DMSO) was calculated as High Control (HC). Average fluorescence signal of low control (Wells with no WRN protein) was calculated as Low control (LC).
# IC50 values were determined by fitting the data to the standard 4 parameters with Hill Slope using GraphPad Prism software.
# Chain of WRN [UniPro: Q14191 (WRN_HUMAN), N500-C946] (Q14191 500-946): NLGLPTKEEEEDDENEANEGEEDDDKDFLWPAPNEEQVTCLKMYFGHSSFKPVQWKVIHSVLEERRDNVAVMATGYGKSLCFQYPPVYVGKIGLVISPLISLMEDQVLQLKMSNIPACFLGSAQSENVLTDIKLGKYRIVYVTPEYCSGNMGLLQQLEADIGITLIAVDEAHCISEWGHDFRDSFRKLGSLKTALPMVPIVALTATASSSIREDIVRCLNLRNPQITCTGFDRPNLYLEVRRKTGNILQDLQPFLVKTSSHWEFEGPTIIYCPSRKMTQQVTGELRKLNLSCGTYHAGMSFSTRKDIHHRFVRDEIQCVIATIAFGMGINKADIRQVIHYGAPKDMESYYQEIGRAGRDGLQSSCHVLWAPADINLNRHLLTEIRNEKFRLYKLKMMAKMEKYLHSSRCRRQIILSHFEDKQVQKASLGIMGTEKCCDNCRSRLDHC
row,Structure (SMILES),IC50 [nM]
1,"CCc1c(N2CCN(C(=O)CNC(=O)c3ccc(Cl)cc3)CC2)c(=O)n2nc(C3=CCOCC3)nc2n1CC(=O)Nc1ccc(C(F)(F)F)cc1Cl [Example 164, 4-Chloro-N-(2-(4-(4-(2-((2-chloro-4-(trifluoromethyl)phenyl)amino)-2-oxoethyl)-2-(3,6-dihydro-2H-pyran-4-yl)-5-ethyl-7-oxo-4,7-dihydro-[1,2,4]triazolo[1,5-a]pyrimidin-6-yl)piperazin-1-yl)-2-oxoethyl)benzamide]",100 to 1000
2,"CCc1c(N2CCN(C(=O)CNC(=O)c3ccccc3F)CC2)c(=O)n2nc(N3CC(OC)C3)nc2n1CC(=O)Nc1ccc(C(F)(F)F)cc1Cl [Example 242, N-(2-(4-(4-(2-((2-Chloro-4-(trifluoromethyl)phenyl)amino)-2-oxoethyl)-5-ethyl-2-(3-methoxyazetidin-1-yl)-7-oxo-4,7-dihydro-[1,2,4]triazolo[1,5-a]pyrimidin-6-yl)piperazin-1-yl)-2-oxoethyl)-2-fluorobenzamide]",100 to 1000
3,"CCc1c(N2CCN(C(=O)NCC3CC3)CC2)c(=O)n2nc(C3=CCOCC3)nc2n1CC(=O)Nc1ccc(C(F)(F)F)cc1Cl [Example 24, 4-(4-(2-((2-Chloro-4-(trifluoromethyl)phenyl)amino)-2-oxoethyl)-2-(3,6-dihydro-2H-pyran-4-yl)-5-ethyl-7-oxo-4,7-dihydro-[1,2,4]triazolo[1,5-a]pyrimidin-6-yl)-N-(cyclopropylmethyl)piperazine-1-carboxamide]",100 to 1000
4,"CCc1c(N2CCN(C(=O)CN)CC2)c(=O)n2nc(C3=CCOCC3)nc2n1CC(=O)Nc1ccc(C(F)(F)F)cc1Cl [Example 38, N-(2-Chloro-4-(trifluoromethyl)phenyl)-2-(2-(3,6-dihydro-2H-pyran-4-yl)-5-ethyl-6-(4-glycylpiperazin-1-yl)-7-oxo-[1,2,4]triazolo[1,5-a]pyrimidin-4(7H)-yl)acetamide]",100 to 1000
5,"CCc1c(N2CCN(/C(=N\O)c3ncccc3F)CC2)c(=O)n2nc(C3=CCOCC3)nc2n1CC(=O)Nc1ccc(C(F)(F)F)cc1Cl [Example 21, (Z)—N-(2-Chloro-4-(trifluoromethyl)phenyl)-2-(2-(3,6-dihydro-2H-pyran-4-yl)-5-ethyl-6-(4-((3-fluoropyridin-2-yl) (hydroxyimino)methyl)piperazin-1-yl)-7-oxo-[1,2,4]triazolo[1,5-a]pyrimidin-4(7H)-yl)acetamide]",> 1000
6,"CCc1c(N2CCN(C(=O)c3c[nH]c(=O)[nH]3)CC2)c(=O)n2nc(C3=CCOCC3)nc2n1CC(=O)Nc1ccc(C(F)(F)F)cc1Cl [Example 316, N-(2-Chloro-4-(trifluoromethyl)phenyl)-2-(2-(3,6-dihydro-2H-pyran-4-yl)-5-ethyl-7-oxo-6-(4-(2-oxo-2,3-dihydro-1H-imidazole-4-carbonyl)piperazin-1-yl)-[1,2,4]triazolo[1,5-a]pyrimidin-4(7H)-yl)acetamide]",100 to 1000
7,"CCc1c(N2CCC3(CCN(C(=O)CNC(=O)c4ccccc4)C3)C2)c(=O)n2nc(C3=CCOCC3)nc2n1CC(=O)Nc1ccc(C(F)(F)F)cc1Cl (stereo not drawn) [Example 139, N-(2-(7-(4-(2-((2-Chloro-4-(trifluoromethyl)phenyl)amino)-2-oxoethyl)-2-(3,6-dihydro-2H-pyran-4-yl)-5-ethyl-7-oxo-4,7-dihydro-[1,2,4]triazolo[1,5-a]pyrimidin-6-yl)-2,7-diazaspiro[4.4]nonan-2-yl)-2-oxoethyl)benzamide]",> 1000
8,"CCc1c(N2CCN(C(=O)CNC(=O)c3c(O)cccc3F)CC2)c(=O)n2nc(C3=CCOCC3)nc2n1CC(=O)Nc1ccc(C(F)(F)F)cc1Cl [Example 294, N-(2-(4-(4-(2-((2-Chloro-4-(trifluoromethyl)phenyl)amino)-2-oxoethyl)-2-(3,6-dihydro-2H-pyran-4-yl)-5-ethyl-7-oxo-4,7-dihydro-[1,2,4]triazolo[1,5-a]pyrimidin-6-yl)piperazin-1-yl)-2-oxoethyl)-2-fluoro-6-hydroxybenzamide]",100 to 1000
9,"CCc1c(N2CCN(C(=O)CNC(=O)OC(C)C)CC2)c(=O)n2nc(C3=CCOCC3)nc2n1CC(=O)Nc1ccc(C(F)(F)F)cc1Cl [Example 172, Isopropyl (2-(4-(4-(2-((2-chloro-4-(trifluoromethyl)phenyl)amino)-2-oxoethyl)-2-(3,6-dihydro-2H-pyran-4-yl)-5-ethyl-7-oxo-4,7-dihydro-[1,2,4]triazolo[1,5-a]pyrimidin-6-yl)piperazin-1-yl)-2-oxoethyl)carbamate]",100 to 1000
10,"CCc1c(N2CCN(C(=O)c3cn(C)c(=O)n(C)c3=O)CC2)c(=O)n2nc(C3=CCOCC3)nc2n1CC(=O)Nc1ccc(C(F)(F)F)cc1Cl [Example 51, N-(2-Chloro-4-(trifluoromethyl)phenyl)-2-(2-(3,6-dihydro-2H-pyran-4-yl)-6-(4-(1,3-dimethyl-2,4-dioxo-1,2,3,4-tetrahydropyrimidine-5-carbonyl)piperazin-1-yl)-5-ethyl-7-oxo-[1,2,4]triazolo[1,5-a]pyrimidin-4(7H)-yl)acetamide]",> 1000
11,"CCc1c(N2CCN(C(=O)c3nnc(-c4ccccc4F)[nH]3)CC2)c(=O)n2nc(C3=CCOCC3)nc2n1CC(=O)Nc1ccc(C(F)(F)F)cc1F [Example 309, 2-(2-(3,6-Dihydro-2H-pyran-4-yl)-5-ethyl-6-(4-(5-(2-fluorophenyl)-4H-1,2,4-triazole-3-carbonyl)piperazin-1-yl)-7-oxo-[1,2,4]triazolo[1,5-a]pyrimidin-4(7H)-yl)-N-(2-fluoro-4-(trifluoromethyl)phenyl)acetamide]",100 to 1000
12,"CCc1c(N2CCN(C(=O)c3cnc4ncnn4c3O)CC2)c(=O)n2nc(C3=CCOCC3)nc2n1CC(=O)Nc1ccc(C(F)(F)F)cc1Cl [Example 52, N-(2-Chloro-4-(trifluoromethyl)phenyl)-2-(2-(3,6-dihydro-2H-pyran-4-yl)-5-ethyl-6-(4-(7-hydroxy-[1,2,4]triazolo[1,5-a]pyrimidine-6-carbonyl)piperazin-1-yl)-7-oxo-[1,2,4]triazolo[1,5-a]pyrimidin-4(7H)-yl)acetamide]",> 1000
13,"CCc1c(N2CCN(C(=O)CNC(=O)c3ccccc3F)CC2)c(=O)n2nc(C3=CCOCC3)nc2n1CC(=O)Nc1ncc(C(F)(F)F)s1 [Example 158, N-(2-(4-(2-(3,6-Dihydro-2H-pyran-4-yl)-5-ethyl-7-oxo-4-(2-oxo-2-((5-(trifluoromethyl)thiazol-2-yl)amino)ethyl)-4,7-dihydro-[1,2,4]triazolo[1,5-a]pyrimidin-6-yl)piperazin-1-yl)-2-oxoethyl)-2-fluorobenzamide]",100 to 1000
14,"CCc1c(N2CCN(C(=O)CNC(=O)c3ccccc3F)CC2)c(=O)n2nc(C3=CCOCC3)nc2n1CC(=O)Nc1nnc(C2CC2)s1 [Example 156, N-(2-(4-(4-(2-((5-Cyclopropyl-1,3,4-thiadiazol-2-yl)amino)-2-oxoethyl)-2-(3,6-dihydro-2H-pyran-4-yl)-5-ethyl-7-oxo-4,7-dihydro-[1,2,4]triazolo[1,5-a]pyrimidin-6-yl)piperazin-1-yl)-2-oxoethyl)-2-fluorobenzamide]",> 1000
15,"CCc1c(N2CCN(C(=O)C(C)(C)NC(=O)c3ccccc3)CC2)c(=O)n2nc(C3=CCOCC3)nc2n1CC(=O)Nc1ccc(C(F)(F)F)cc1Cl [Example 137, N-(1-(4-(4-(2-((2-Chloro-4-(trifluoromethyl)phenyl)amino)-2-oxoethyl)-2-(3,6-dihydro-2H-pyran-4-yl)-5-ethyl-7-oxo-4,7-dihydro-[1,2,4]triazolo[1,5-a]pyrimidin-6-yl)piperazin-1-yl)-2-methyl-1-oxopropan-2-yl)benzamide]",> 1000
16,"CCc1c(N2CCN(C(=O)NS(=O)(=O)C3CC3)CC2)c(=O)n2nc(C3=CCOCC3)nc2n1CC(=O)Nc1ccc(C(F)(F)F)cc1Cl [Example 34, 4-(4-(2-((2-Chloro-4-(trifluoromethyl)phenyl)amino)-2-oxoethyl)-2-(3,6-dihydro-2H-pyran-4-yl)-5-ethyl-7-oxo-4,7-dihydro-[1,2,4]triazolo[1,5-a]pyrimidin-6-yl)-N-(cyclopropylsulfonyl)piperazine-1-carboxamide]",100 to 1000
17,"CCc1c(N2CCN(C(=O)CNS(=O)(=O)CC)CC2)c(=O)n2nc(C3=CCOCC3)nc2n1CC(=O)Nc1ccc(C(F)(F)F)cc1Cl [Example 39, N-(2-Chloro-4-(trifluoromethyl)phenyl)-2-(2-(3,6-dihydro-2H-pyran-4-yl)-5-ethyl-6-(4-((ethylsulfonyl)glycyl)piperazin-1-yl)-7-oxo-[1,2,4]triazolo[1,5-a]pyrimidin-4(7H)-yl)acetamide]",100 to 1000
18,"CCOC(=O)N1CCN(c2c(CC)n(CC(=O)Nc3ccc(C(F)(F)F)cc3Cl)c3nc(C4=CCOCC4)nn3c2=O)CC1 [Example 40, Ethyl 4-(4-(2-((2-chloro-4-(trifluoromethyl)phenyl)amino)-2-oxoethyl)-2-(3,6-dihydro-2H-pyran-4-yl)-5-ethyl-7-oxo-4,7-dihydro-[1,2,4]triazolo[1,5-a]pyrimidin-6-yl)piperazine-1-carboxylate]",> 1000

# Source: patent publication US20260015358A1, “BICYCLIC DERIVATIVES, COMPOSITIONS AND USES THEREOF” (Danatlas Pharmaceuticals Co., Ltd., priority 2023, published 2026)
